Patent US11472778B2, “Hepatitis C virus NS3/4A protease inhibitors” (priority 2017, dated 2022)
Read-outs that look alike come from different tables or passages of the source.

Assays:
[1] = rcm bond, 15-membered ring, Zhan 1b, 1,2-DCE, 70.0 °C
GT3a NS3/4A protease = biological target: T1, GT3a NS3/4A protease (Hepatitis C virus genotype 3a, UniProt Q81495); assay: biochemical; conditions: for Ki (Fold change) GT3a NS3/4A Protease: Table 3, Ki GT3a relative to GT1a WT
T1 construct: drug-resistant variant D168A, and GT3a NS3/4A protease; made in house; host or cells: Escherichia coli BL21(DE3)
T1 sequence (Q81495 1033-1214): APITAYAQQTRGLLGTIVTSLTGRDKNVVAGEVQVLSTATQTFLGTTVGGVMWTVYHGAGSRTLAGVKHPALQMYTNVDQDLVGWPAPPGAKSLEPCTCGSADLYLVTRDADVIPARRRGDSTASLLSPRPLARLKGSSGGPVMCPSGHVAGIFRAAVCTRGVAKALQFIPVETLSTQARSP
Outline: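 Protease at 2 nM pre-incubated 1 h at room temperature with increasing inhibitor concentrations in 50 mM Tris, 5% glycerol, 10 mM DTT, 0.6 mM LDAO, 4% DMSO. Three independent data sets per inhibitor and construct.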

[2] = tested on: HCV replicon D168V variant in Huh7 cells; assay: microbe, parasite or virus in culture; format: cell-based, Hepatitis C virus; conditions: for EC50: Hepatitis C virus
Outline: (§1)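 Chimeric Con1/H77-NS3 luciferase replicon, electroporated into Huh7 cells and grown with rising protease inhibitor levels; luciferase read 96 h later.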

[3] = biological target: T2, wild-type GT1a NS3/4A protease (UniProt P27958, C1185S, species not given); format: biochemical, Hepatitis C virus; conditions: read-out: Ki (nM) GT1a WT NS3/4A Protease
T2 construct: Ki (nM) GT1a WT NS3/4A Protease
Outline: (§2)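 Enzyme (GT1a wild type or D168A mutant, 2 nM) was preincubated with inhibitor dilutions for 1 h at room temperature in pH 7.5 Tris buffer with glycerol, DTT, LDAO and 4% DMSO.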

[4] = biological target: GT1a D168A NS3/4A protease; format: biochemical, Hepatitis C virus; conditions: for Ki (Fold change) GT1a D168A NS3/4A Protease: Table 3, Ki D168A relative to GT1a WT
Outline: as §2

[5] = biological target: T3, GT1a D168A NS3/4A protease (UniProt P27958, C1185S/D1194A, species not given); format: biochemical, Hepatitis C virus; conditions: read-out: Ki (nM) GT1a D168A NS3/4A Protease
T3 construct: Ki (nM) GT1a D168A NS3/4A Protease
Outline: as §2

[6] = tested on: HCV replicon D168A variant in Huh7 cells; assay: microbe, parasite or virus in culture; format: cell-based, Hepatitis C virus; conditions: for EC50: Hepatitis C virus
Outline: as §1

[7] = tested on: HCV replicon R155K variant in Huh7 cells; assay: microbe, parasite or virus in culture; format: cell-based, Hepatitis C virus; conditions: for EC50: Hepatitis C virus
Outline: as §1

[8] = tested on: HCV replicon A156T variant in Huh7 cells; assay: microbe, parasite or virus in culture; format: cell-based, Hepatitis C virus; conditions: for EC50: Hepatitis C virus
Outline: as §1

[9] = tested on: wild-type HCV replicon in Huh7 cells; assay: Cell-based drug susceptibility (replicon) assay, wild-type; conditions: Hepatitis C virus, read-out: Replicon EC50 (nM) WT
Outline: as §1

[10] = biological target: GT1a R155K NS3/4A protease (UniProt P27958, R1181K, species not given); format: biochemical, Hepatitis C virus
Description: (§3) For each assay, 2 nM of NS3/4A protease (GT1a, R155K and D168A) was pre-incubated at room temperature for 1 h with increasing concentration of inhibitors in assay buffer (50 mM Tris, 5% glycerol, 10 mM DTT, 0.6 mM LDAO, and 4% dimethyl sulfoxide, pH 7.5). Inhibition assays were performed in non-binding surface 96-well black half-area plates (Corning) in a reaction volume of 60 μL. […] Three independent data sets were collected for each inhibitor with each protease construct. […] Gibbs free energy of binding was calculated using the following equation: ΔG=RTlnKi

[11] = biological target: GT1a R155K NS3/4A protease; format: biochemical, Hepatitis C virus; conditions: fold change in Ki, R155K relative to WT
Description: as §3

[12] = biological target: T4, wild-type GT1a NS3/4A protease (UniProt P27958); format: biochemical, Hepatitis C virus
T4 construct: Ki WT; other: wild-type HCV NS3/4A protease
Outline: as §2

[13] = biological target: T5, GT1a D168A NS3/4A protease (UniProt P27958, D1194A, species not given); format: biochemical, Hepatitis C virus
T5 construct: rows headed: Ki (nM) D168A; Ki D168A; other: D168A variant
Outline: as §2

[14] = Huh-7, 96 h, read-out: Replicon EC50 (nM) D168V, Table 2, Huh7 cells, luciferase 96 h
[15] = Huh-7, read-out: Replicon EC50 (nM) D168V, Table 4
[16] = Table 4, relative to WT replicon
[17] = Huh-7, 96 h, read-out: Replicon EC50 (nM) D168A, Table 2, Huh7 cells, luciferase 96 h
[18] = Huh-7, read-out: Replicon EC50 (nM) D168A, Table 4
[19] = Huh-7, read-out: Replicon EC50 (nM) R155K, Table 4
[20] = Huh-7, 96 h, read-out: Replicon EC50 (nM) A156T, Table 2, Huh7 cells, luciferase 96 h
[21] = Huh-7, read-out: Replicon EC50 (nM) A156T, Table 4

In the case of `COc1ccc2nc(Cl)c(O[C@@H]3C[C@H]4C(=O)N[C@]5(C(=O)NS(=O)(=O)C6CC6)C[C@H]5/C=C\CCCCC[C@H](NC(=O)OC(C)(C)C)C(=O)N4C3)nc2c1` [Compound 18c, tert-Butyl ((2R,6S,13aS,14aR,16aS,Z)-2-((3-chloro-7-methoxyquinoxalin-2-yl)oxy)-14a-((cyclopropylsulfonyl)carbamoyl)-5,16-dioxo-1,2,3,5,6,7,8,9,10,11,13a,14,14a,15,16,16a-hexadecahydrocyclopropa[e]pyrrolo[1,2-a][1,4]diazacyclopentadecin-6-yl)carbamate], the ring closure, isolated yield ([1]; 6.3 mM) is reported as 50%, the Ki (GT3a NS3/4A protease) is reported as 67.5 nM and the “Ki (Fold change) GT3a NS3/4A Protease” value (GT3a NS3/4A protease) is reported as “(63) fold”. The EC50 [2, 14] was under 1 nM, the EC50 [2, 15] was 0.73 nM and the “Replicon EC50 (Fold change) D168V” value [2, 16] was “(5) fold”. The Ki ([3]; Table 1) was 1.07 nM, the Ki ([3]; Table 3) was 1.07 nM and the “Ki (Fold change) GT1a D168A NS3/4A Protease” value [4] was “(37) fold”. The Ki ([5]; Table 1) was 39.8 nM, the Ki ([5]; Table 3) was 39.8 ± 3.4 nM and the EC50 [6, 17] was under 2 nM. For the same compound, the EC50 [6, 18] was 1.42 nM, the “Replicon EC50 (Fold change) D168A” value [6, 16] was “(9) fold” and the EC50 [7, 19] was 0.44 nM. For the same compound, the “Replicon EC50 (Fold change) R155K” value [7, 16] was “(3) fold”, the EC50 [8, 20] was 16.2 nM and the EC50 [8, 21] was 16.2 nM. For the same compound, the “Replicon EC50 (Fold change) A156T” value [8, 16] was “(101) fold” and the EC50 ([9]; Huh-7, Table 4) was 0.16 nM.
With `CCc1nc2ccc(OC)cc2nc1O[C@@H]1C[C@H]2C(=O)N[C@]3(C(=O)NS(=O)(=O)C4CC4)C[C@H]3/C=C\CCCCC[C@H](NC(=O)OC(C)(C)C)C(=O)N2C1` [Compound 2, tert-Butyl ((2R,6S,13aS,14aR,16aS,Z)-14a-((cyclopropylsulfonyl)carbamoyl)-2-((3-ethyl-7-methoxyquinoxalin-2-yl)oxy)-5,16-dioxo-1,2,3,5,6,7,8,9,10,11,13a,14,14a,15,16,16a-hexadecahydrocyclopropa[e]pyrrolo[1,2-a][1,4]diazacyclopentadecin-6-yl)carbamate] the ring closure, isolated yield ([1]; 6.0 mM) was 53%, the Ki (GT3a NS3/4A protease) was 204 nM and the “Ki (Fold change) GT3a NS3/4A Protease” value (GT3a NS3/4A protease) was “(62) fold”. For the same compound, the Ki ([10]; read-out: Ki (nM) R155K, Table 8, linear inhibitors) was 3.1 ± 0.34 nM, the Ki ([10]; read-out: Ki R155K, R155K variant) was 3.1 ± 0.34 nM and the “Ki R155K (fold change)” value [11] was 1.6. The EC50 [2, 14] was 9.1 nM, the EC50 [2, 15] was 9.1 nM and the EC50 ([2]; Huh-7, read-out: Replicon EC50 (nM) D168V, Table 9) was 9.1 nM. For the same compound, the “Replicon EC50 (Fold change) D168V” value [2, 16] was “(28) fold”, the “Replicon EC50 (Fold change) D168V” value ([2]; Table 9, relative to WT) was “(28) fold” and the Ki ([12]; read-out: Ki (nM) WT, Table 8, linear inhibitors) was 2 nM. For the same compound, the Ki ([12]; read-out: Ki WT, wild-type HCV NS3/4A protease) was 2 ± 0.1 nM, the Ki ([3]; Table 1) was 3.29 nM and the Ki ([3]; Table 3) was 3.29 nM. For the same compound, the Ki ([13]; read-out: Ki (nM) D168A, Table 8, linear inhibitors) was 91 ± 10 nM, the Ki ([13]; read-out: Ki D168A, D168A variant) was 91 ± 10 nM and the “Ki (Fold change) GT1a D168A NS3/4A Protease” value [4] was “(25) fold”. The “Ki D168A (fold change)” value ([4]; fold change in Ki, D168A relative to WT) was 46, the Ki ([5]; Table 1) was 82.4 nM and the Ki ([5]; Table 3) was 82.4 ± 4.4 nM. For the same compound, the EC50 [6, 17] was 6.31 nM, the EC50 [6, 18] was 6.31 nM and the EC50 ([6]; Huh-7, read-out: Replicon EC50 (nM) D168A, Table 9) was 6.3 nM. The “Replicon EC50 (Fold change) D168A” value [6, 16] was “(19) fold”, the “Replicon EC50 (Fold change) D168A” value ([6]; Table 9, relative to WT) was “(19) fold” and the EC50 ([7]; Huh-7, 96 h, read-out: Replicon EC50 (nM) R155K, Table 2, Huh7 cells, luciferase 96 h) was 1.75 nM. The EC50 [7, 19] was 1.75 nM, the EC50 ([7]; Huh-7, read-out: Replicon EC50 (nM) R155K, Table 9) was 1.8 nM and the “Replicon EC50 (Fold change) R155K” value [7, 16] was “(5) fold”. The “Replicon EC50 (Fold change) R155K” value ([7]; Table 9, relative to WT) was “(5.5) fold”, the EC50 [8, 20] was 9.65 nM and the EC50 [8, 21] was 9.65 nM. For the same compound, the EC50 ([8]; Huh-7, read-out: Replicon EC50 (nM) A156T, Table 9) was 9.7 nM, the “Replicon EC50 (Fold change) A156T” value [8, 16] was “(29) fold” and the “Replicon EC50 (Fold change) A156T” value ([8]; Table 9, relative to WT) was “(29) fold”. The EC50 ([9]; Huh-7, 96 h, Table 2, Huh7 cells, luciferase 96 h) was 0.33 nM, the EC50 ([9]; Huh-7, Table 4) was 0.33 nM and the EC50 ([9]; Huh-7, Table 9) was 0.33 nM.
